Experimental findings from ChEMBL document CHEMBL5465560, “Selectivity Literature for EUbOPEN Chemogenomic Library” (2024) are described below.

Test [1] has as its target Tyrosine-protein kinase Lck (Homo sapiens, UniProt P06239). As to the kind of experiment: Selectivity interaction (SelectScreen profiling (Invitrogen)) EUB0000607a LCK. The following applies: at 2 µM.
Test [2] addresses T1, Phosphatidylinositol 3-kinase C2 domain-containing subunit gamma (Homo sapiens) (UniProt O75747).
T1 sequence (whole entry): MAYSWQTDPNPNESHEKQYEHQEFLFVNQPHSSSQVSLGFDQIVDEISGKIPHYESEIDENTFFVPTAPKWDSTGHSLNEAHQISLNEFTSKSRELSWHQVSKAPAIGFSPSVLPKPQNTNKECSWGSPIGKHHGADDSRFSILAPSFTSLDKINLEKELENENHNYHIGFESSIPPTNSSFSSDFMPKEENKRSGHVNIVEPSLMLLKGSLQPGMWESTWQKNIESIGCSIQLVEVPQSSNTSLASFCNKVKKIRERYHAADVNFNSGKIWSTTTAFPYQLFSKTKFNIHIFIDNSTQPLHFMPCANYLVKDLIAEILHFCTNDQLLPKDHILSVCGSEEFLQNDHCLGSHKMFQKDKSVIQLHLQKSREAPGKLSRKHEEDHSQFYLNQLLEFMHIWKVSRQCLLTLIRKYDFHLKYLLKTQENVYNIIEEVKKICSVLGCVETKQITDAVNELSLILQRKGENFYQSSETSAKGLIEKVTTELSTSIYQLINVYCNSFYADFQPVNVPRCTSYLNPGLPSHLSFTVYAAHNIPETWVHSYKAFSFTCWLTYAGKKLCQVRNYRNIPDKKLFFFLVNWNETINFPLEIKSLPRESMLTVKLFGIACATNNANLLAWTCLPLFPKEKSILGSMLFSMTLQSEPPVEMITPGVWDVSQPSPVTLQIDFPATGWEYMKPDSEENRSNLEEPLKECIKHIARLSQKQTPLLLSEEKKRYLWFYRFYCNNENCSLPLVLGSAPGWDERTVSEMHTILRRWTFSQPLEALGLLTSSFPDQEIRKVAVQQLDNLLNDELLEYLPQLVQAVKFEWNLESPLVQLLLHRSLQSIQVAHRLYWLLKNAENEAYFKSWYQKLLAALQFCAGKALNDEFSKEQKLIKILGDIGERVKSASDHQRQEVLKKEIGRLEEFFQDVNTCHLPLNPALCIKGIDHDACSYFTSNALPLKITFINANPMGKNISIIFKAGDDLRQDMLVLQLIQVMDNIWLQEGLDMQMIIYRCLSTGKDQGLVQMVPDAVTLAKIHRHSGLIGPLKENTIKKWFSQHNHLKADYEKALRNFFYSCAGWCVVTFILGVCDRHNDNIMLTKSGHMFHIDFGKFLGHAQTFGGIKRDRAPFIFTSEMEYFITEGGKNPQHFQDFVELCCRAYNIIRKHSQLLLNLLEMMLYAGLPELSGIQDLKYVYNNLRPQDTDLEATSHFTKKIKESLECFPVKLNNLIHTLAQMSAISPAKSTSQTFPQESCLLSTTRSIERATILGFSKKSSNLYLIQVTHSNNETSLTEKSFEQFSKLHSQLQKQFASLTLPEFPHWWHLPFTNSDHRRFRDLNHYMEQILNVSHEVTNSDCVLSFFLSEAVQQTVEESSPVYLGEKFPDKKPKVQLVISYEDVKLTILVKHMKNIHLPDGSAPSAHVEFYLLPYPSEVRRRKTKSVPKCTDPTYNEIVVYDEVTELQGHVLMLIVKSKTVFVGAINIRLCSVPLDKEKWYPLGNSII
The following applies: at 10 µM.

Test [3] deals with N-lysine methyltransferase SMYD2 (Homo sapiens) (UniProt Q9NRG4). As to the kind of experiment: Selectivity interaction (Methyltransferase screen (Scintillation proximity assays)) EUB0000255b SMYD2. (In general: In a scintillation proximity assay essentially only radioactivity close to the scintillant gives light.)
Chain of N-lysine methyltransferase SMYD2 (Homo sapiens) (Q9NRG4 whole entry): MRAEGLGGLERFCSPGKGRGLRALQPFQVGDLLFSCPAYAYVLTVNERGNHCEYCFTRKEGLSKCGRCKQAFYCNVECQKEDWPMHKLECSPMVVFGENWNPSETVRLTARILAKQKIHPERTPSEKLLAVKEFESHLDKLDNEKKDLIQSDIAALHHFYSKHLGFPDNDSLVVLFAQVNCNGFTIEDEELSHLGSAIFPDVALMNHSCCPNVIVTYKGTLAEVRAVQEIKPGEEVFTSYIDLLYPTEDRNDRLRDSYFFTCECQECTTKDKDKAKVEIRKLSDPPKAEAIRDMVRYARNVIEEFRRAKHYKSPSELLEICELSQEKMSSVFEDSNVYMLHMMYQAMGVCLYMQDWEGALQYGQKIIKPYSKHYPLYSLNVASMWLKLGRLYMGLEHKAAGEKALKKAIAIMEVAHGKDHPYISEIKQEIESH
Test [4] addresses Mitogen-activated protein kinase kinase kinase 10 (Homo sapiens) (UniProt Q02779). Put plainly: Selectivity interaction (KinomeScan (DiscoverX)) EUB0000655a MAP3K10. The following applies: at 10 µM.
Test [5] has as its target T2, Ephrin type-A receptor 6 (Homo sapiens) (UniProt Q9UF33).
T2 sequence (whole entry): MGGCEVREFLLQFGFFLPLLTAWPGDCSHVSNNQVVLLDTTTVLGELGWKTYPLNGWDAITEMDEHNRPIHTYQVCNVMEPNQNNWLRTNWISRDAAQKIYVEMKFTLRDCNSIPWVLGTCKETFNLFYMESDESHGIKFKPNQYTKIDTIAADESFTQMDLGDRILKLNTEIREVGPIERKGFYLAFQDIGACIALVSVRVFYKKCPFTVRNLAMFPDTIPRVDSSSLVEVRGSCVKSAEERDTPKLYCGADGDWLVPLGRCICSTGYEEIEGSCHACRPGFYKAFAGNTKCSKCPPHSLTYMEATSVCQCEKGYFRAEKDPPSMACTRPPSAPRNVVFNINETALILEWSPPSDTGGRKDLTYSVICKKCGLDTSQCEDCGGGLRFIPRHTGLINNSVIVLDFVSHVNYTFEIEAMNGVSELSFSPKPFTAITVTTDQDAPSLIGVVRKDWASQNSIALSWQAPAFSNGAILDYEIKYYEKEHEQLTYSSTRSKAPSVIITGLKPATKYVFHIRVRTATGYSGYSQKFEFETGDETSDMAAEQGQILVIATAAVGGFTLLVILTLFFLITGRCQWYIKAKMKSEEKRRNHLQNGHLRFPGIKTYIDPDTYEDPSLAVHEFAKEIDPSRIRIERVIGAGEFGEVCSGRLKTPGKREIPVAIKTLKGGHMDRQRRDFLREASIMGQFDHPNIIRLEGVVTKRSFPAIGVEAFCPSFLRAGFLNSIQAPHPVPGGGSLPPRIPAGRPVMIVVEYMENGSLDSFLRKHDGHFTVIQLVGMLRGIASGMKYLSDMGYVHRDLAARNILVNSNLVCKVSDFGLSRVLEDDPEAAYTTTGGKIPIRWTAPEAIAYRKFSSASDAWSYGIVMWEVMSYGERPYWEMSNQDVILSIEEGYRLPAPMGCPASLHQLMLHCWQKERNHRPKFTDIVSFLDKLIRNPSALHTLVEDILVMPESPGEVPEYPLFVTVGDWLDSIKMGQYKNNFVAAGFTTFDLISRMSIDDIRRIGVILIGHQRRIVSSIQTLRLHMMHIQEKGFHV
Put plainly: Selectivity interaction (KinomeScan (DiscoverX)) EUB0001619a EPHA6. The following applies: at 1 µM.

Test [6] has as its system Tyrosine-protein kinase ABL1 (Homo sapiens), P00519 [H396P]. As to the kind of experiment: Selectivity interaction (KinomeScan (DiscoverX)) EUB0001049a ABL1. The following applies: at 1 µM.
Test [7] deals with Serine/threonine-protein kinase MARK1 (Homo sapiens) (UniProt Q9P0L2). Put plainly: Selectivity interaction (KinomeScan (DiscoverX)) EUB0000695a MARK1. The following applies: at 100 nM.
Chain of Serine/threonine-protein kinase MARK1 (Homo sapiens) (Q9P0L2 whole entry, looked up): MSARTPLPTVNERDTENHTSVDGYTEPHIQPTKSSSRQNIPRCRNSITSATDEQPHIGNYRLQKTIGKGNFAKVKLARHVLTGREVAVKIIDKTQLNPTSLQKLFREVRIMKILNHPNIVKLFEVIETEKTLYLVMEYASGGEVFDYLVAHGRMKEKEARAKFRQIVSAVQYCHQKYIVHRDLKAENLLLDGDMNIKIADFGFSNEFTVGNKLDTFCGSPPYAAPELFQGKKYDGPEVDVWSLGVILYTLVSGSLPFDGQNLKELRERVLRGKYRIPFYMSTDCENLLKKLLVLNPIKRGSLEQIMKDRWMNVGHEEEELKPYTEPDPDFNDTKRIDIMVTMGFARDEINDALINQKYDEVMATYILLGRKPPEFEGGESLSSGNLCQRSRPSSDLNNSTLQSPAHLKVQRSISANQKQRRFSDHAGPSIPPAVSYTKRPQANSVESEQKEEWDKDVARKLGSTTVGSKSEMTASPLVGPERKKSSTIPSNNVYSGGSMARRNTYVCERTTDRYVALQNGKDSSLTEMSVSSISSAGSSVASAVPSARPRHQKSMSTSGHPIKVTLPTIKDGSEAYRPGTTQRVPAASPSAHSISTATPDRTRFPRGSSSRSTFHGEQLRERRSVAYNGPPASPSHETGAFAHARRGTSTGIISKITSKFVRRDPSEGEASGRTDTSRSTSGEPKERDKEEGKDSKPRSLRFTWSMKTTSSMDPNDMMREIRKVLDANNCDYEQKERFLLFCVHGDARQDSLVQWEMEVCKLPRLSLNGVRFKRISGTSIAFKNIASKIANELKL
Test [8] concerns the target MAP/microtubule affinity-regulating kinase 3 (Homo sapiens) (UniProt P27448). As to the kind of experiment: Selectivity interaction (KinomeScan (DiscoverX)) EUB0000092b MARK3. The following applies: at 10 µM.

Chain of MAP/microtubule affinity-regulating kinase 3 (Homo sapiens) (P27448 whole entry, looked up): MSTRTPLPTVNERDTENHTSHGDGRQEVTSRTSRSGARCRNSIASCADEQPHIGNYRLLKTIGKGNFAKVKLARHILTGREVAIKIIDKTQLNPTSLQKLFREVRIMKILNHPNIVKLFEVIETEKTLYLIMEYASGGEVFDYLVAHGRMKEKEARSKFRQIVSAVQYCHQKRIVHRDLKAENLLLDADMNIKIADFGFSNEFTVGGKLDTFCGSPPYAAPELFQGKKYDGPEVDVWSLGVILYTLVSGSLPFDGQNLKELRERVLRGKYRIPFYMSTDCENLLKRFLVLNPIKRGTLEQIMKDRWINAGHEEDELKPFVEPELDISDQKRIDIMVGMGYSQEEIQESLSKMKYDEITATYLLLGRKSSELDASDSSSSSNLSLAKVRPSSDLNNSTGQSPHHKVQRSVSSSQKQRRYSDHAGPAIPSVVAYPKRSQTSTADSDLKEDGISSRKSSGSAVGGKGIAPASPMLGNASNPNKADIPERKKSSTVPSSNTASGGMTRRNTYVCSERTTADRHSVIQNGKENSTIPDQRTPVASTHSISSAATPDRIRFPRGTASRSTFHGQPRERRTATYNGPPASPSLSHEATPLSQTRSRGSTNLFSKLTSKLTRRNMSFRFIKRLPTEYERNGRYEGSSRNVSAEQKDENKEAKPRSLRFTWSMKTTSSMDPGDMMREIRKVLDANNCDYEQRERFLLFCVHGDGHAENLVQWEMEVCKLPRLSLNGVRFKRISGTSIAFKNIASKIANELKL
Chain of Mitogen-activated protein kinase kinase kinase 10 (Homo sapiens) (Q02779 whole entry, looked up): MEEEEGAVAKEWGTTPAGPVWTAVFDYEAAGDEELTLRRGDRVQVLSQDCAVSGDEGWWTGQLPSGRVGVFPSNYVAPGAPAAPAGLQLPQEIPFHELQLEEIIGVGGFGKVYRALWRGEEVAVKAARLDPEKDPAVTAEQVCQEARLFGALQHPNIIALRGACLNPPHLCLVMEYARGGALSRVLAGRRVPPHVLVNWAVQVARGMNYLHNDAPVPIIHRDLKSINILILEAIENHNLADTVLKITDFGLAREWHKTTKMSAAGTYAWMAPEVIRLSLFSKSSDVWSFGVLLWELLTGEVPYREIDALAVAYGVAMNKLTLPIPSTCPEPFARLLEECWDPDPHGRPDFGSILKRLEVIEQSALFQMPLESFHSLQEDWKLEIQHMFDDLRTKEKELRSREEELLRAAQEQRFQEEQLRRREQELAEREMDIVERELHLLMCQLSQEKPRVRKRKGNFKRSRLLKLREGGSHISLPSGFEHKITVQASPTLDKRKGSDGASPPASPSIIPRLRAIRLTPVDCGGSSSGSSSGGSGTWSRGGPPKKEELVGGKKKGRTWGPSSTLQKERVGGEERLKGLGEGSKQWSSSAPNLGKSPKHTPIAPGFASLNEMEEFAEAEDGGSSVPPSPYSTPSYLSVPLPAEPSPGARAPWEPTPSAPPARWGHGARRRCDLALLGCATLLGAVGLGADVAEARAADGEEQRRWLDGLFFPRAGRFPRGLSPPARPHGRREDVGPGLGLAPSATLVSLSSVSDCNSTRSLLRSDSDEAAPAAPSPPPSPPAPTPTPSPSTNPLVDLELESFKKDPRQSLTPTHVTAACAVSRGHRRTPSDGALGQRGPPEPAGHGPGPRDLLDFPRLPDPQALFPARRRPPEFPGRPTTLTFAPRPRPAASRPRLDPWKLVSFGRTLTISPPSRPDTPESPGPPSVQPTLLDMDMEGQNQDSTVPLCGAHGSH
Chain of Tyrosine-protein kinase Lck (P06239 2-509 limits assumed): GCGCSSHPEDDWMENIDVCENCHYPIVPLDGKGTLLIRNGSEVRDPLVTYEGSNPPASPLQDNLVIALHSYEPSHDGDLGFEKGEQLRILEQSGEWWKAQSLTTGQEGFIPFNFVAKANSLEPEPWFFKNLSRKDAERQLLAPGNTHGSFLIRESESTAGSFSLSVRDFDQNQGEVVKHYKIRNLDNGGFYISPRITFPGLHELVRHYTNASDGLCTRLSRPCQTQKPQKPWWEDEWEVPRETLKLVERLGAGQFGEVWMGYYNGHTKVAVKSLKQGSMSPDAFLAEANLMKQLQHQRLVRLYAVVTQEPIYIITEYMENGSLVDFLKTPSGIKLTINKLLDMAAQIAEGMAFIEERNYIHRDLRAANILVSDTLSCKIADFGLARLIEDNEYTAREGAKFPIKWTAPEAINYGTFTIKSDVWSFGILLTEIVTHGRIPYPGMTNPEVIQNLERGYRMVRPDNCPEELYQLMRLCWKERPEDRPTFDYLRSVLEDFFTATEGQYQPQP

As to `CNC(=O)Nc1ccc(-c2nc(N3CC4CCC(C3)O4)c3cnn(C4CCC5(CC4)OCCO5)c3n2)cc1`, the % of inhibition in test [1] worked out at 10%.
For `Cc1cc([C@@H](C)Nc2ccccc2C(=O)O)c2nc(N3CCOCC3)cc(=O)n2c1` [AZD-6482], the % of control in test [2] is 7%.
On to `COCCN1CCC(c2cc(CN(C)C(=O)c3cccc(Oc4ccccc4)c3)ccn2)CC1`, for which the figures for the % activity in test [3] (at 1 µM) and in test [3] (at 10 µM) were over 95% and over 90%, respectively.
Consider `CN(C)CCOc1ccc(-c2nc(-c3ccncc3)c(-c3ccc4c(c3)CC/C4=N\O)[nH]2)cc1`, for which the % of control in test [4] was 92%.
In test [5], `N#Cc1cccc(-c2c[nH]c3ncnc(N4CCOCC4)c23)c1` gave a % of control of 100%.
The compound `COc1cc(Nc2nc(C)cc(-c3cnn4nc(OC)ccc34)n2)cc(C(F)(F)F)c1` displayed a % of control in test [6] of 73%.
In turn, `Cc1cc(F)c(C(=O)Nc2cccc(-c3nncn3C(C)C)n2)cc1-n1cnc(C2CC2)c1` showed a % of control in test [7] of 100%.
With `CCC(=O)N1CCN(c2ccc(-n3c(=O)ccc4cnc5ccc(-c6cnc7ccccc7c6)cc5c43)cc2C(F)(F)F)CC1`, the % of control in test [8] is 100%.
